{"source": "patent US4013762A", "about": "“Growth promotion” (Richardson-Merrell Inc., priority 1976, dated 1977)", "key": {"[1]": {"test_system": "ten day old leghorn chicks", "assay": "Chick weight gain, subcutaneous treatment for six days", "type": "in vivo", "conditions": "for Weight Gain (g ± S.E.M.): gain during one week, control 52.7 ± 1.6, * significantly different from controls, p <- 0.05"}, "[2]": {"target": "T1, androgen receptor (Rattus norvegicus, UniProt P15207)", "T1 construct": "male rats were castrated and the prostate cytosol was prepared; from tissue; host or cells: prostate cytosol of castrated male rats, prepared 24 to 48 hours after surgery", "T1 sequence (P15207 1-902)": "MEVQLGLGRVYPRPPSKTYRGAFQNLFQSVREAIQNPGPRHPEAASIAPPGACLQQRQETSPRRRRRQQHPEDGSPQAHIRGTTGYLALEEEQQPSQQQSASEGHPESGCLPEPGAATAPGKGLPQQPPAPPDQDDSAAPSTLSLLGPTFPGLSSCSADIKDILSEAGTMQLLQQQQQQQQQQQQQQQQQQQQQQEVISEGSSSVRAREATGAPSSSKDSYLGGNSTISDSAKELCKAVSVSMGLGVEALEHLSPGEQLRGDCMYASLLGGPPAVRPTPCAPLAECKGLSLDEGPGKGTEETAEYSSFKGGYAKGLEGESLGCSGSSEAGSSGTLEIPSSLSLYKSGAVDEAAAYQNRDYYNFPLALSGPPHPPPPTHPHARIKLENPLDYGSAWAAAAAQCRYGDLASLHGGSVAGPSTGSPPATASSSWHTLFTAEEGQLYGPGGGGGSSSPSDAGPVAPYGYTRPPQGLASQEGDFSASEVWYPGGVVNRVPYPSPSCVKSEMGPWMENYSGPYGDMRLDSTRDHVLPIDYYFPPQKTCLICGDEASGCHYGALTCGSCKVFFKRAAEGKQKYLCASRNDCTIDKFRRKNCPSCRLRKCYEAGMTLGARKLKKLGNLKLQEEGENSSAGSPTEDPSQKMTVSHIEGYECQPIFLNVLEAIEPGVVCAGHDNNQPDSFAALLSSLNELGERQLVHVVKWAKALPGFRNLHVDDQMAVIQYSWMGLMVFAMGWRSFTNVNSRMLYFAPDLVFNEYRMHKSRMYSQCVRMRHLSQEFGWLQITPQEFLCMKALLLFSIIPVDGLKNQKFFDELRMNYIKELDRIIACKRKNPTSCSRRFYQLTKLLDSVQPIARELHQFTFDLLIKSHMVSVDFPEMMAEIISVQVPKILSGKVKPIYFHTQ", "assay": "Androgen binding: competitive binding with 3H-testosterone labeled cytosol receptor sites, rat prostate cytosol", "excerpt": "This binding is the first step necessary for hormonal action."}, "[3]": {"test_system": "poultry and ruminants", "assay": "Growth promotion in animals", "type": "in vivo", "conditions": "applicant's findings"}, "[4]": {"test_system": "muscle fiber", "assay": "Masculinizing effect on the muscle fiber", "type": "in vivo", "conditions": "applicant's findings"}, "[5]": {"conditions": "reported in U.S. Pat. Nos. 3,235,573 and 3,449,381; cited from earlier work"}, "[6]": {"test_system": "poultry and ruminants", "conditions": "background, known; cited from earlier work"}, "[7]": {"test_system": "muscle fiber", "conditions": "background, known; cited from earlier work"}}, "note": "Where two headings read alike, the source gives them in different places.", "data": [{"compound": "C[C@]12CC[C@H]3[C@@H](CCC4=CC(=O)CC[C@@]43C=O)[C@@H]1CCC2=O", "note": "[3,17-Dioxoandrost-4-en-19-al, 3,17-dioxoandrost-4-en-19-al]", "values": [{"measurement": "Weight Gain (g ± S.E.M.)", "setting": "[1]; 1 mg/kg/day subcutaneously for six days", "value": "58.8 ± 1.4", "unit": "g"}, {"measurement": "Weight Gain (g ± S.E.M.)", "setting": "[1]; 10 mg/kg/day subcutaneously for six days", "value": "63.0 ± 1.1", "unit": "g"}, {"measurement": "Weight Gain (g ± S.E.M.)", "setting": "[1]; 30 mg/kg/day subcutaneously for six days", "value": "74.0 ± 2.6", "unit": "g"}, {"measurement": "growth rate as measured by weight gain", "setting": "[1]; 1.0, 10 and 30 mg/kg/day s.c. six days, compared to untreated control chicks", "value": "significant increase in growth rate"}, {"measurement": "androgen receptor binding", "setting": "[2]; in vitro, androgen target tissue", "value": "lack of androgen binding affinity"}, {"measurement": "% Binding (androgen binding, relative)", "setting": "[2]; relative to 5α-dihydrotestosterone equated to 100, 4 × 10^-6 to 4 × 10^-10 molar, castrated male rat prostate cytosol", "value": 0.07, "unit": "%"}]}, {"compound": "C[C@]12CC[C@H]3[C@@H](CCC4=CC(=O)CC[C@@]43C=O)[C@@H]1CC[C@@H]2O", "note": "[3-oxo-17β-hydroxyandrost-4-en-19-al]", "values": [{"measurement": "growth promotion", "setting": "[3]", "value": "effective in growth promotion in animals"}, {"measurement": "masculinizing effect on the muscle fiber", "setting": "[4]", "value": "without any masculinizing effect on the muscle fiber"}, {"measurement": "anabolic-androgenic activity", "setting": "[5]", "value": "anabolic-androgenic activity"}]}, {"compound": "CCC(=O)O[C@H]1CC[C@H]2[C@@H]3CCC4=CC(=O)CC[C@]4(C)[C@H]3CC[C@]12C", "note": "[testosterone propionate]", "values": [{"measurement": "growth promotion", "setting": "[6]", "value": "effective in promoting growth in animals"}, {"measurement": "masculinization of the muscle fiber", "setting": "[7]", "value": "masculinization of the muscle fiber"}]}, {"compound": "CSCCC(O)C(=O)O", "note": "(stereo not drawn) [α-hydroxy-γ-methylmercaptobutyric acid]", "values": [{"measurement": "growth promotion", "setting": "[6]", "value": "promote growth by improving feed efficiency"}]}]}
